# Laboratory results: ChEMBL document CHEMBL1141099, “Discovery of N-(2,6-dimethylphenyl)-substituted semicarbazones as anticonvulsants: hybrid pharmacophore-based design” (2005)
# How the values were obtained:
# Rattus norvegicus [1] = experiment: Number of rats protected at a dose of 30 mg/Kg when given oral at 4 hr upon maximal electroshock seizure; Total number of rats = 4; type: functional
# Rattus norvegicus [2] = experiment: Number of rats protected at a dose of 30 mg/Kg when given oral at 1 hr upon maximal electroshock seizure; Total number of rats = 4; type: functional
# Mus musculus [3] = experiment: Minimum dose required for anticonvulsant activity when given i.p., at 4 hr in mice upon maximal electroshock seizure; type: functional
# Mus musculus [4] = experiment: Minimum dose required for anticonvulsant activity when given i.p., at 0.5 hr in mice upon subcutaneous strychnine seizure; type: functional
# Rattus norvegicus [5] = experiment: Number of rats protected at a dose of 30 mg/Kg when given oral at 0.5 hr upon maximal electroshock seizure; Total number of rats = 4; type: functional
# Rattus norvegicus [6] = experiment: Number of rats protected at a dose of 30 mg/Kg when given oral at 2 hr upon maximal electroshock seizure; Total number of rats = 4; type: functional
# Mus musculus [7] = experiment: Minimum dose required for anticonvulsant activity when given i.p., at 0.5 hr in mice upon maximal electroshock seizure; type: functional
# Rattus norvegicus [8] = experiment: Number of rats protected at a dose of 30 mg/Kg when given oral at 0.25 hr upon maximal electroshock seizure; Total number of rats = 4; type: functional
# Mus musculus [9] = experiment: Minimum dose required for anticonvulsant activity when given i.p., at 2 hr in mice upon subcutaneous strychnine seizure; type: functional
# Mus musculus [10] = experiment: Minimum dose required for anticonvulsant activity when given i.p., at 0.5 hr in mice upon subcutaneous pentylenetetrazole seizure; type: functional
# Mus musculus [11] = experiment: Minimum dose required for anticonvulsant activity when given i.p., at 0.5 hr in mice upon neurotoxicity seizure using rotarod test; type: functional
# Mus musculus [12] = experiment: Post treatment activity score for CNS study using a actophotometer at a dose of 100 mg/Kg after 1 hr when given i.p., in mice (No. of animals 6); Control (24h before) 224
# Mus musculus [13] = experiment: Post treatment activity score for CNS study using a actophotometer at a dose of 100 mg/Kg after 0.5 hr when given i.p., in mice (No. of animals 6); Control (24h before) 224
# Rattus norvegicus [14] = species on record: Rattus norvegicus; experiment: Ex vitro percentage inhibition activity against GABA-T enzyme at a concentration of 1.25 uM after 6 h; type: functional
# [15] = biological target: 4-aminobutyrate aminotransferase, mitochondrial (Rattus norvegicus) (UniProt P50554); experiment: In vitro percentage inhibition activity against GABA-T enzyme at a concentration of 1.25 uM after 3 h
# 4-aminobutyrate aminotransferase, mitochondrial (Rattus norvegicus), sequence (P50554 28-500 limits assumed): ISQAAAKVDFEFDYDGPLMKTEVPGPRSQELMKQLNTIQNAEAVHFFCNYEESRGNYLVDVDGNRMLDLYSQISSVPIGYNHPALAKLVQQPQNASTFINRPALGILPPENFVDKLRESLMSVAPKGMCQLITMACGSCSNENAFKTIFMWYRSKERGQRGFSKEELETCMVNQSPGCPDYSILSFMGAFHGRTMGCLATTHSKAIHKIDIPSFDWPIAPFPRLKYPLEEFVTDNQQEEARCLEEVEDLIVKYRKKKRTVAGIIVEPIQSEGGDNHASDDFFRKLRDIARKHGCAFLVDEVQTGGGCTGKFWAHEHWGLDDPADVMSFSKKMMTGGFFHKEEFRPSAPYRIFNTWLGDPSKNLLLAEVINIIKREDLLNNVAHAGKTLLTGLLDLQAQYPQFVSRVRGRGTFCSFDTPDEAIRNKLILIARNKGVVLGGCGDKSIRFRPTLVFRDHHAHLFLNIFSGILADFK
# Rattus norvegicus [16] = species on record: Rattus norvegicus; experiment: Ex vitro percentage inhibition activity against GABA-T enzyme at a concentration of 1.25 uM after 4.5 h; type: functional
# [17] = biological target: 4-aminobutyrate aminotransferase, mitochondrial (Rattus norvegicus) (UniProt P50554); experiment: In vitro percentage inhibition activity against GABA-T enzyme at a concentration of 1.25 uM after 4.5 h
# [18] = biological target: 4-aminobutyrate aminotransferase, mitochondrial (Rattus norvegicus) (UniProt P50554); experiment: In vitro percentage inhibition activity against GABA-T enzyme at a concentration of 1.25 uM after 6 h
# Rattus norvegicus [19] = species on record: Rattus norvegicus; experiment: Ex vitro percentage inhibition activity against GABA-T enzyme at a concentration of 1.25 uM after 3 h; type: functional
# Mus musculus [20] = experiment: Minimum dose required for anticonvulsant activity when given i.p., in mice upon neurotoxicity seizure using rotarod test
# Rattus norvegicus [21] = experiment: Effect on GABA level in rat whole brain concentration after 2 hr post-treatment at a dose of 100 mg/Kg when given i.p.; Control 48.4; type: functional
# Rattus norvegicus [22] = experiment: Effect on GABA level in rat whole brain concentration after 7 days post-treatment at a dose of 30 mg/Kg when given orally; Control 50.5; type: functional
# Mus musculus [23] = experiment: Mean sleeping time evaluated for CNS study using the pentobarbital-induced narcosis model at a dose of 100 mg/Kg when given i.p., in mice (No. of animals 6)
SMILES,Activity (Rattus norvegicus [1]),Activity (Rattus norvegicus [2]),MES (Mus musculus [3]),STY seizure (Mus musculus [4]),Activity (Rattus norvegicus [5]),Activity (Rattus norvegicus [6]),MES (Mus musculus [7]),Activity (Rattus norvegicus [8]),STY seizure (Mus musculus [9]),PTZ seizure (Mus musculus [10]),NT (Mus musculus [11]),further results
C/C(CC(C)C)=N/NC(=O)Nc1c(C)cccc1C,2,2,300 mg/kg,30 mg/kg,2,4,100 mg/kg,1,100 mg/kg,,,
Cc1cccc(C)c1NC(=O)N/N=C/c1ccc([N+](=O)[O-])cc1,1,2,300 mg/kg,30 mg/kg,1,1,100 mg/kg,1,100 mg/kg,300 mg/kg,300 mg/kg,
Cc1cccc(C)c1NC(=O)NN=C1CCCCC1,3,2,300 mg/kg,100 mg/kg,1,4,100 mg/kg,1,300 mg/kg,,300 mg/kg,
Cc1cccc(C)c1NC(=O)/N=N/c1c(O)[nH]c2ccc(F)cc12,3,1,300 mg/kg,30 mg/kg,1,1,100 mg/kg,1,100 mg/kg,300 mg/kg,300 mg/kg,Activity (Mus musculus [12]): 194; Activity (Mus musculus [13]): 204
NNCCc1ccccc1 [PHENELZINE],,,,,,,,,,,,Inhibition (Rattus norvegicus [14]): 65%; inhibition [15]: 0%; Inhibition (Rattus norvegicus [16]): 85%; inhibition [17]: 75%; inhibition [18]: 62%; Inhibition (Rattus norvegicus [19]): 25%
CCCC(CCC)C(=O)O [VALPROIC ACID],,,,,,,,,,,,NT (Mus musculus [20]): 300 mg/kg
C/C(=N\NC(=O)Nc1c(C)cccc1C)c1ccccc1,3,4,300 mg/kg,30 mg/kg,2,3,100 mg/kg,1,100 mg/kg,300 mg/kg,,
COc1ccc(/C=N/NC(=O)Nc2c(C)cccc2C)cc1,3,3,300 mg/kg,30 mg/kg,4,3,100 mg/kg,1,100 mg/kg,300 mg/kg,300 mg/kg,
CC(C)=NNC(=O)Nc1c(C)cccc1C,2,4,300 mg/kg,100 mg/kg,4,3,100 mg/kg,3,100 mg/kg,300 mg/kg,300 mg/kg,
Cc1cccc(C)c1NC(=O)NN=C1CCCC1,1,1,300 mg/kg,,2,3,100 mg/kg,2,,300 mg/kg,300 mg/kg,
Cc1cccc(C)c1NC(=O)NN=C(Cc1ccccc1)Cc1ccccc1,0,1,300 mg/kg,300 mg/kg,1,0,300 mg/kg,0,,,300 mg/kg,
CN1C(=O)CC(=O)N(c2ccccc2)c2cc(Cl)ccc21 [CLOBAZAM],,,,,,,,,,,,Activity (Rattus norvegicus [21]): 101 ug/100mg of tissue; Activity (Rattus norvegicus [22]): 110 ug/100mg of tissue
Cc1cccc(C)c1NC(=O)N/N=C/c1ccccc1,4,3,100 mg/kg,30 mg/kg,3,3,100 mg/kg,1,100 mg/kg,300 mg/kg,300 mg/kg,
Cc1cccc(C)c1NC(=O)N/N=C/c1ccccc1Cl,4,1,300 mg/kg,30 mg/kg,1,1,100 mg/kg,2,100 mg/kg,300 mg/kg,300 mg/kg,
C/C(=N\NC(=O)Nc1c(C)cccc1C)c1ccccc1O,4,2,300 mg/kg,100 mg/kg,1,3,100 mg/kg,3,300 mg/kg,300 mg/kg,,
C/C(=N\NC(=O)Nc1c(C)cccc1C)c1cccc(N)c1,3,1,300 mg/kg,100 mg/kg,3,2,100 mg/kg,1,300 mg/kg,,300 mg/kg,
CCC1(c2ccccc2)C(=O)NC(=O)NC1=O [PHENOBARBITAL],,,,,,,,,,,,NT (Mus musculus [20]): 100 mg/kg; Time (Mus musculus [23]): 54 min
Cc1cccc(C)c1NC(=O)N/N=C\c1ccco1,3,1,300 mg/kg,100 mg/kg,2,4,100 mg/kg,0,300 mg/kg,300 mg/kg,300 mg/kg,
Cc1cccc(C)c1NC(=O)NN=C(c1ccccc1)c1ccccc1,0,1,300 mg/kg,300 mg/kg,1,1,100 mg/kg,1,,300 mg/kg,300 mg/kg,
C/C(=N\NC(=O)Nc1c(C)cccc1C)c1ccc([N+](=O)[O-])cc1,1,2,300 mg/kg,100 mg/kg,2,3,300 mg/kg,1,300 mg/kg,300 mg/kg,300 mg/kg,
